Data set [1] in a line: PET/CT DOTATOC uptake in lungs, 8505C mouse model and controls. It is filed as in vivo, NSG mice. As to conditions: NSG. The method, then: 1×10^6 8505c-FLuc^+GFP^+cells were injected into NSG mice via tail vein. 2-3×10^6 primary human T cells were injected via tail vein 7-15 days after tumor cell injection. Luminescence imaging of tumor xenografts in live mice was performed using a whole body optical imager (In-Vivo Extreme 4MP, Bruker). Mice were first anesthetized with 3% isoflurane at 2 L/min O2 and subsequent to this, maintained at 2% isoflurane at 2 L/min O2. Growth or reduction in tumor burden was estimated by integration of luminescence over the lungs or the entire mouse body. Ex-vivo fluorescence imaging of mouse liver, lungs, spleen and resected tumors were performed using a whole body optical imager (In-Vivo F Pro, Bruker).
(§1) Projection data was acquired in a cone-beam geometry with approximately […] steps at 1 degree angular increments. At least 10 million coincidence events were acquired for PET per study using a 250 to 750 keV energy window and a 6 ns timing window. […] To compute DOTATOC uptake by Jurkat tumors, the ellipsoidal ROIs (Amide) were placed to enclose subcutaneous tumors that closely match overall tumor size and shape. For systemic 8505C tumor models, ellipsoids were drawn separately on the left and right sides of lungs to enclose much of five lobes of mouse lungs. The % ID/cm^3 values, computed relative to the counts in a reference tube, can be approximated to a standard uptake value (SUV^61) by dividing % ID/cm^3 by four, assuming injection efficiency of 100% and 25 g of body weight. Visualization and analyses of PET/CT images were performed using Amide (amide.sourceforge.net).

Data set [2] is described as follows: PET/CT DOTATOC uptake by subcutaneous Jurkat T cell xenografts (0-100% SSTR2+). It is filed as in vivo, NSG mice. To be noted: NSG (NOD/LtSz Prkdc^scid Il2rg^tm1Wjl/J), mouse, subcutaneous Jurkat tumor xenograft. The method, then:
All animal experiments were performed in strict accordance with the recommendations in the Guide for the Care and Use of Laboratory Animals of the National Institutes of Health. This study's animal protocol was approved by the Institutional Laboratory Animal Use and Care Committee of Weill Cornell Medicine. SSTR2 expressing Jurkats were spiked with increasing numbers of non-transduced Jurkats to derive distinct cultures containing defined percentages of SSTR2 expression ranging from 100-0%. For each subcutaneous xenograft, 5×10^6 total cells were resuspended in 100 μl Matrigel Basement Membrane Matrix (Corning) and injected bilaterally into nonobese diabetic (NOD)/LtSz Prkdc^scid I12rg^tm1Wj1/J (NSG) mice (Jackson Laboratory). Measurements of tumor size were made using an external digital caliper. Tumor volume was calculated by using the modified ellipsoid formula 1/2(Length×Width^2). Length was measured as the longer dimension. Each dimensional measurement was rounded to the nearest 0.5 cm.
as §1

The target in data set [3] is SSTR2 (Homo sapiens, UniProt P30874). As to the kind of experiment: Octreotide-induced SSTR2 internalization in SSTR2-transduced Jurkat T cells by flow cytometry. As to conditions: 1 μM octreotide, 30 min, 37° C. The data set is classed as cell-based. As to the method: SSTR2-transduced Jurkat T cells were incubated with or without octreotide, 1 μM (Sigma) for 30 min at 37° C. Subsequent internalization of SSTR2 was measured by flow cytometry analysis of SSTR2 expression. […] Values obtained were used for Scatchard analysis to estimate affinity and site density.
(In flow cytometry, cells or beads pass a laser one at a time.)

The target in data set [4] is ICAM-1 (Homo sapiens, UniProt P05362). As to the kind of experiment: SPR measurement of LFA-1 I domain affinity to ICAM-1. The data set is classed as binding.
Text: Affinity is first measured by surface plasmon resonance (e.g., Biacore) to assess 1.1 binding affinity between I domain and ICAM-1.

Residue numbers refer to the chain shown, from its start. Numbers in names are those of the source.

Chain of ICAM-1 (P05362 28-532): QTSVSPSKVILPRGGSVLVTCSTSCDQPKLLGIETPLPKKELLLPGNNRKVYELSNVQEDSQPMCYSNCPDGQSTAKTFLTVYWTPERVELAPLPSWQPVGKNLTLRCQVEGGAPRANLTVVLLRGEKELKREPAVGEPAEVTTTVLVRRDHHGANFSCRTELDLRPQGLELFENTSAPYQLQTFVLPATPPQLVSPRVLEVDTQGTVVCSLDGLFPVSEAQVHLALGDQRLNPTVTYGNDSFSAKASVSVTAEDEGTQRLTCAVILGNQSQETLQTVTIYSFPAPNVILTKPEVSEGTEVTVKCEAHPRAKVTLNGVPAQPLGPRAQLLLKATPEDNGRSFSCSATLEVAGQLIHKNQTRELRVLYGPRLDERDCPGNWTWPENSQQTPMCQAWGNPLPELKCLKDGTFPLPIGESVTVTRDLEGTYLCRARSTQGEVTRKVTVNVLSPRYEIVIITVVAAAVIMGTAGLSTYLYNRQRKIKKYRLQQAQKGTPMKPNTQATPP
Chain of SSTR2 (P30874 whole entry): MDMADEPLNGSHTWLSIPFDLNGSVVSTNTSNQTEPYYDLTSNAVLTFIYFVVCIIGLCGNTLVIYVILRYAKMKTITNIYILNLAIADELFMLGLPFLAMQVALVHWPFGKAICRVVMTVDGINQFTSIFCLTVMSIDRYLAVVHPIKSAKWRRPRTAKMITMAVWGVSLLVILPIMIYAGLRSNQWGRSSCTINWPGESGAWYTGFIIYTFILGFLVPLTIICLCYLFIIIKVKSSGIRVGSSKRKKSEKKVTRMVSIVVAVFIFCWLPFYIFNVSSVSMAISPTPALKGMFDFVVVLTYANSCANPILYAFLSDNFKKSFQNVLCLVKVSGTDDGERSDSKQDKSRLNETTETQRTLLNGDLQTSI

Consider `C[C@@H](O)[C@@H]1NC(=O)[C@H](CCCCN)NC(=O)[C@@H](Cc2c[nH]c3ccccc23)NC(=O)[C@H](Cc2ccc(O)cc2)NC(=O)[C@@H](NC(=O)[C@@H](Cc2ccccc2)NC(=O)CN2CCN(CC(=O)O)CCN(CC(=O)O)CCN(CC(=O)O)CC2)CSSC[C@@H](C(=O)N[C@H](CO)[C@@H](C)O)NC1=O` [DOTATOC, 1,4,7,10-tetraazacyclododecane-N^I,N^II,N^III,N^IIII-tetraacetic acid (D)-Phe^1-Tyr^3-octreotide], for which the tissue uptake per volume was 1 %ID/mL in data set [1] (lungs, DOTATOC uptake in the lungs, mice treated with RR T cells); 0.7 %ID/mL in data set [1] (lungs, DOTATOC uptake, mice with no tumors infused with SS T cells); 1.3 ± 0.5 %ID/mL in data set [1] (thoracic cavity, non-specific DOTATOC uptake in the thoracic cavity, high tumor burden, 23-27 days post-tumor xenograft, no T cells or SS T cells); 0.6 to 0.8 %ID/mL in data set [2] (Jurkat tumors containing 0% SSTR2+ cells); 0.44 ± 0.2 %ID/mL in data set [2] (tumors below 65 mm^3, 0% SSTR2+); 0.64 ± 0.4 %ID/mL in data set [2] (tumors below 65 mm^3, 1% SSTR2+). In addition, the tissue uptake per volume in data set [2] (tumors below 65 mm^3, 10% SSTR2+) was determined as 0.83 ± 0.5 %ID/mL; in data set [2] (tumors below 65 mm^3, 100% SSTR2+) it was 3.4 ± 1.7 %ID/mL; in data set [2] (tumors larger than 65 mm^3, 0% SSTR2+) it was 0.8 ± 0.35 %ID/mL; in data set [2] (tumors larger than 65 mm^3, 0.1% SSTR2+), 1.1 ± 0.51 %ID/mL; in data set [2] (tumors larger than 65 mm^3, 1% SSTR2+), 2 ± 0.77 %ID/mL; in data set [2] (tumors larger than 65 mm^3, 10% SSTR2+) it was 2.8 ± 1.1 %ID/mL. Besides, in data set [2] (tumors larger than 65 mm^3, 100% SSTR2+), the tissue uptake per volume stood at 7.1 ± 2.3 %ID/mL.
On to `C[C@@H](O)[C@@H]1NC(=O)[C@H](CCCCN)NC(=O)[C@@H](Cc2c[nH]c3ccccc23)NC(=O)[C@H](Cc2ccccc2)NC(=O)[C@@H](NC(=O)[C@H](N)Cc2ccccc2)CSSC[C@@H](C(=O)N[C@H](CO)[C@@H](C)O)NC1=O` [octreotide], for which, in data set [3], the “surface expression of SSTR2 (antibody binding)” value is “reduced surface expression of SSTR2”.

B1: F292G: LFA-1 I domain mutant F292G, G128-G311 of SEQ ID NO: 1 (protein, listed as Homo sapiens)
chain: GNVDLVFLFDGSMSLQPDEFQKILDFMKDVMKKLSNTSYQFAAVQFSTSYKTEFDFSDYVKWKDPDALLKHVKHMLLLTNTFGAINYVATEVFREELGARPDATKVLIIITDGEATDSGNIDAAKDIIRYIIGIGKHFQTKESQETLHKFASKPASEFVKILDTGEKLKDLFTELQKKIYVIEG
In the case of B1, the dissociation constant (Kd) (as a rule, a measure of binding affinity in units of concentration) in data set [4] (SPR measurements, I domain to ICAM-1) was determined as 100 nM.

B2: F265S/F292G (DM): LFA-1 I domain double mutant F265S/F292G, G128-G311 of SEQ ID NO: 1 (protein, listed as Homo sapiens)
chain: B1 chain with F138S
On to B2, for which the “affinity higher than the wild-type (WT) I domain” value in data set [4] (vs WT KD=1.5 mM) is listed as “approximately 200,000 fold”.

These data come from patent publication US12325736B2, “Transduced T cells expressing human SSTR2 and application thereof” (Cornell University, priority 2016, dated 2025).
